Measurements published in ChEMBL document CHEMBL1641588, “3-[Benzimidazo- and 3-[benzothiadiazoleimidazo-(1,2-c)quinazolin-5-yl]-2H-chromene-2-ones as potent antimicrobial agents” (2011).
In brackets after ≈: the same amount, converted by molar mass.

The compounds below were run on Candida albicans (assay: Antifungal activity against Candida albicans by liquid dilution method). Conditions: not given.
Assay type: functional
For `Cc1cccc2cc(-c3nc4ccccc4c4nc5c6nsnc6ccc5n34)c(=O)oc12`, the MIC was 35 µg/mL (≈ 80.4 µM).
Compound `O=c1oc2ccc([N+](=O)[O-])cc2cc1-c1nc2ccccc2c2nc3c4nsnc4ccc3n12` has an MIC of 30 µg/mL (≈ 64.3 µM).
With `CC(=O)N1CCN(c2ccc(OCC3COC(Cn4ccnc4)(c4ccc(Cl)cc4Cl)O3)cc2)CC1` (centres undefined) [KETOCONAZOLE] the MIC was 25 µg/mL (≈ 47 µM).

The compounds below were run on Aspergillus niger (assay: Antifungal activity against Aspergillus niger by liquid dilution method). Conditions: not given.
Assay type: functional
`Cc1cccc2cc(-c3nc4ccccc4c4nc5c6nsnc6ccc5n34)c(=O)oc12` was tested, and the MIC was 50 µg/mL (≈ 115 µM).
`O=c1oc2ccc([N+](=O)[O-])cc2cc1-c1nc2ccccc2c2nc3c4nsnc4ccc3n12` was tested, and the MIC was 35 µg/mL (≈ 75 µM).
Compound `CC(=O)N1CCN(c2ccc(OCC3COC(Cn4ccnc4)(c4ccc(Cl)cc4Cl)O3)cc2)CC1` (centres undefined) [KETOCONAZOLE] has an MIC of 15 µg/mL (≈ 28.2 µM).

The compounds below were run on Bacillus subtilis (assay: Antibacterial activity against Bacillus subtilis at 1000 ug/mL after 72 hrs by agar diffusion assay). Conditions: read-out: IZ.
Assay type: functional
For `Cc1cccc2cc(-c3nc4ccccc4c4nc5c6nsnc6ccc5n34)c(=O)oc12`, the zone of inhibition at 1000 µg/mL was 26 mm.
Work on `O=c1oc2ccc([N+](=O)[O-])cc2cc1-c1nc2ccccc2c2nc3c4nsnc4ccc3n12` yielded a zone of inhibition at 1000 µg/mL of 30 mm.
For `CC1(C)S[C@@H]2[C@H](NC(=O)[C@H](N)c3ccccc3)C(=O)N2[C@H]1C(=O)O` [AMPICILLIN], the zone of inhibition at 1000 µg/mL was 39 mm.

Each compound was assayed on Streptococcus pyogenes (assay: Antibacterial activity against Streptococcus pyogenes at 1000 ug/mL after 72 hrs by agar diffusion assay). Conditions: read-out: IZ.
Assay type: functional
For `Cc1cccc2cc(-c3nc4ccccc4c4nc5c6nsnc6ccc5n34)c(=O)oc12`, the zone of inhibition at 1000 µg/mL was 24 mm.
For `O=c1oc2ccc([N+](=O)[O-])cc2cc1-c1nc2ccccc2c2nc3c4nsnc4ccc3n12`, the zone of inhibition at 1000 µg/mL was 29 mm.
Compound `CC1(C)S[C@@H]2[C@H](NC(=O)[C@H](N)c3ccccc3)C(=O)N2[C@H]1C(=O)O` [AMPICILLIN] has a zone of inhibition at 1000 µg/mL of 35 mm.

The compounds below were run on Streptococcus pyogenes (assay: Antibacterial activity against Streptococcus pyogenes by liquid dilution method). Conditions: not given.
Assay type: functional
For `Cc1cccc2cc(-c3nc4ccccc4c4nc5c6nsnc6ccc5n34)c(=O)oc12`, the MIC was 45 µg/mL (≈ 103 µM).
In the case of `O=c1oc2ccc([N+](=O)[O-])cc2cc1-c1nc2ccccc2c2nc3c4nsnc4ccc3n12`, the MIC is reported as 30 µg/mL (≈ 64.3 µM).
`CC1(C)S[C@@H]2[C@H](NC(=O)[C@H](N)c3ccccc3)C(=O)N2[C@H]1C(=O)O` [AMPICILLIN] gave an MIC of 25 µg/mL (≈ 71.5 µM).

What follows are compounds tested on Aspergillus niger (assay: Antifungal activity against Aspergillus niger at 1000 ug/mL after 72 hrs by agar diffusion assay). Conditions: read-out: IZ.
Assay type: functional
`Cc1cccc2cc(-c3nc4ccccc4c4nc5c6nsnc6ccc5n34)c(=O)oc12` was tested, and the zone of inhibition at 1000 µg/mL was 28 mm.
`O=c1oc2ccc([N+](=O)[O-])cc2cc1-c1nc2ccccc2c2nc3c4nsnc4ccc3n12` was tested, and the zone of inhibition at 1000 µg/mL was 36 mm.
For `CC(=O)N1CCN(c2ccc(OCC3COC(Cn4ccnc4)(c4ccc(Cl)cc4Cl)O3)cc2)CC1` (centres undefined) [KETOCONAZOLE], the zone of inhibition at 1000 µg/mL was 45 mm.

Each compound was assayed on Salmonella typhimurium (assay: Antibacterial activity against Salmonella Typhimurium at 1000 ug/mL after 72 hrs by agar diffusion assay). Conditions: Salmonella enterica, read-out: IZ.
Assay type: functional, Salmonella enterica subsp. enterica serovar Typhimurium
With `Cc1cccc2cc(-c3nc4ccccc4c4nc5c6nsnc6ccc5n34)c(=O)oc12` the zone of inhibition at 1000 µg/mL was 29 mm.
In the case of `O=c1oc2ccc([N+](=O)[O-])cc2cc1-c1nc2ccccc2c2nc3c4nsnc4ccc3n12`, the zone of inhibition at 1000 µg/mL is reported as 29 mm.
Compound `CC1(C)S[C@@H]2[C@H](NC(=O)[C@H](N)c3ccccc3)C(=O)N2[C@H]1C(=O)O` [AMPICILLIN] has a zone of inhibition at 1000 µg/mL of 45 mm.

These compounds were tested on Escherichia coli (assay: Antibacterial activity against Escherichia coli at 1000 ug/mL after 72 hrs by agar diffusion assay). Conditions: read-out: IZ.
Assay type: functional
`Cc1cccc2cc(-c3nc4ccccc4c4nc5c6nsnc6ccc5n34)c(=O)oc12` showed a zone of inhibition at 1000 µg/mL of 20 mm.
`O=c1oc2ccc([N+](=O)[O-])cc2cc1-c1nc2ccccc2c2nc3c4nsnc4ccc3n12` showed a zone of inhibition at 1000 µg/mL of 31 mm.
With `CC1(C)S[C@@H]2[C@H](NC(=O)[C@H](N)c3ccccc3)C(=O)N2[C@H]1C(=O)O` [AMPICILLIN] the zone of inhibition at 1000 µg/mL was 40 mm.

Each compound was assayed on Staphylococcus aureus (assay: Antibacterial activity against Staphylococcus aureus at 1000 ug/mL after 72 hrs by agar diffusion assay). Conditions: read-out: IZ.
Assay type: functional
`Cc1cccc2cc(-c3nc4ccccc4c4nc5c6nsnc6ccc5n34)c(=O)oc12` gave a zone of inhibition at 1000 µg/mL of 29 mm.
For `O=c1oc2ccc([N+](=O)[O-])cc2cc1-c1nc2ccccc2c2nc3c4nsnc4ccc3n12`, the zone of inhibition at 1000 µg/mL was 27 mm.
`CC1(C)S[C@@H]2[C@H](NC(=O)[C@H](N)c3ccccc3)C(=O)N2[C@H]1C(=O)O` [AMPICILLIN] was tested, and the zone of inhibition at 1000 µg/mL was 48 mm.

Each compound was assayed on Staphylococcus aureus (assay: Antibacterial activity against Staphylococcus aureus by liquid dilution method). Conditions: not given.
Assay type: functional
Work on `Cc1cccc2cc(-c3nc4ccccc4c4nc5c6nsnc6ccc5n34)c(=O)oc12` yielded an MIC of 40 µg/mL (≈ 91.9 µM).
With `O=c1oc2ccc([N+](=O)[O-])cc2cc1-c1nc2ccccc2c2nc3c4nsnc4ccc3n12` the MIC was 35 µg/mL (≈ 75 µM).
For `CC1(C)S[C@@H]2[C@H](NC(=O)[C@H](N)c3ccccc3)C(=O)N2[C@H]1C(=O)O` [AMPICILLIN], the MIC was 10 µg/mL (≈ 28.6 µM).

What follows are compounds tested on Klebsiella pneumoniae (assay: Antibacterial activity against Klebsiella pneumoniae by liquid dilution method). Conditions: not given.
Assay type: functional
With `Cc1cccc2cc(-c3nc4ccccc4c4nc5c6nsnc6ccc5n34)c(=O)oc12` the MIC was 25 µg/mL (≈ 57.4 µM).
Work on `O=c1oc2ccc([N+](=O)[O-])cc2cc1-c1nc2ccccc2c2nc3c4nsnc4ccc3n12` yielded an MIC of 45 µg/mL (≈ 96.5 µM).
In the case of `CC1(C)S[C@@H]2[C@H](NC(=O)[C@H](N)c3ccccc3)C(=O)N2[C@H]1C(=O)O` [AMPICILLIN], the MIC is reported as 10 µg/mL (≈ 28.6 µM).

The compounds below were run on Aspergillus flavus (assay: Antifungal activity against Aspergillus flavus by liquid dilution method). Conditions: not given.
Assay type: functional
`Cc1cccc2cc(-c3nc4ccccc4c4nc5c6nsnc6ccc5n34)c(=O)oc12` showed an MIC of 40 µg/mL (≈ 91.9 µM).
`O=c1oc2ccc([N+](=O)[O-])cc2cc1-c1nc2ccccc2c2nc3c4nsnc4ccc3n12` showed an MIC of 25 µg/mL (≈ 53.6 µM).
`CC(=O)N1CCN(c2ccc(OCC3COC(Cn4ccnc4)(c4ccc(Cl)cc4Cl)O3)cc2)CC1` (centres undefined) [KETOCONAZOLE] showed an MIC of 15 µg/mL (≈ 28.2 µM).

These compounds were tested on Aspergillus flavus (assay: Antifungal activity against Aspergillus flavus at 1000 ug/mL after 72 hrs by agar diffusion assay). Conditions: read-out: IZ.
Assay type: functional
Compound `Cc1cccc2cc(-c3nc4ccccc4c4nc5c6nsnc6ccc5n34)c(=O)oc12` has a zone of inhibition at 1000 µg/mL of 33 mm.
`O=c1oc2ccc([N+](=O)[O-])cc2cc1-c1nc2ccccc2c2nc3c4nsnc4ccc3n12` showed a zone of inhibition at 1000 µg/mL of 44 mm.
With `CC(=O)N1CCN(c2ccc(OCC3COC(Cn4ccnc4)(c4ccc(Cl)cc4Cl)O3)cc2)CC1` (centres undefined) [KETOCONAZOLE] the zone of inhibition at 1000 µg/mL was 43 mm.

Each compound was assayed on Klebsiella pneumoniae (assay: Antibacterial activity against Klebsiella pneumoniae at 1000 ug/mL after 72 hrs by agar diffusion assay). Conditions: read-out: IZ.
Assay type: functional
In the case of `Cc1cccc2cc(-c3nc4ccccc4c4nc5c6nsnc6ccc5n34)c(=O)oc12`, the zone of inhibition at 1000 µg/mL is reported as 32 mm.
Compound `O=c1oc2ccc([N+](=O)[O-])cc2cc1-c1nc2ccccc2c2nc3c4nsnc4ccc3n12` has a zone of inhibition at 1000 µg/mL of 27 mm.
Compound `CC1(C)S[C@@H]2[C@H](NC(=O)[C@H](N)c3ccccc3)C(=O)N2[C@H]1C(=O)O` [AMPICILLIN] has a zone of inhibition at 1000 µg/mL of 45 mm.

What follows are compounds tested on Salmonella typhimurium (assay: Antibacterial activity against Salmonella Typhimurium by liquid dilution method). Conditions: Salmonella enterica.
Assay type: functional, Salmonella enterica subsp. enterica serovar Typhimurium
`Cc1cccc2cc(-c3nc4ccccc4c4nc5c6nsnc6ccc5n34)c(=O)oc12` gave an MIC of 30 µg/mL (≈ 68.9 µM).
`O=c1oc2ccc([N+](=O)[O-])cc2cc1-c1nc2ccccc2c2nc3c4nsnc4ccc3n12` was tested, and the MIC was 35 µg/mL (≈ 75 µM).
`CC1(C)S[C@@H]2[C@H](NC(=O)[C@H](N)c3ccccc3)C(=O)N2[C@H]1C(=O)O` [AMPICILLIN] gave an MIC of 10 µg/mL (≈ 28.6 µM).

The compounds below were run on Bacillus subtilis (assay: Antibacterial activity against Bacillus subtilis by liquid dilution method). Conditions: not given.
Assay type: functional
Work on `Cc1cccc2cc(-c3nc4ccccc4c4nc5c6nsnc6ccc5n34)c(=O)oc12` yielded an MIC of 50 µg/mL (≈ 115 µM).
`O=c1oc2ccc([N+](=O)[O-])cc2cc1-c1nc2ccccc2c2nc3c4nsnc4ccc3n12` showed an MIC of 45 µg/mL (≈ 96.5 µM).
`CC1(C)S[C@@H]2[C@H](NC(=O)[C@H](N)c3ccccc3)C(=O)N2[C@H]1C(=O)O` [AMPICILLIN] showed an MIC of 20 µg/mL (≈ 57.2 µM).

The compounds below were run on Escherichia coli (assay: Antibacterial activity against Escherichia coli by liquid dilution method). Conditions: not given.
Assay type: functional
In the case of `Cc1cccc2cc(-c3nc4ccccc4c4nc5c6nsnc6ccc5n34)c(=O)oc12`, the MIC is reported as 45 µg/mL (≈ 103 µM).
Compound `O=c1oc2ccc([N+](=O)[O-])cc2cc1-c1nc2ccccc2c2nc3c4nsnc4ccc3n12` has an MIC of 35 µg/mL (≈ 75 µM).
For `CC1(C)S[C@@H]2[C@H](NC(=O)[C@H](N)c3ccccc3)C(=O)N2[C@H]1C(=O)O` [AMPICILLIN], the MIC was 15 µg/mL (≈ 42.9 µM).

Each compound was assayed on Candida albicans (assay: Antifungal activity against Candida albicans at 1000 ug/mL after 72 hrs by agar diffusion assay). Conditions: read-out: IZ.
Assay type: functional
`Cc1cccc2cc(-c3nc4ccccc4c4nc5c6nsnc6ccc5n34)c(=O)oc12` showed a zone of inhibition at 1000 µg/mL of 30 mm.
Work on `O=c1oc2ccc([N+](=O)[O-])cc2cc1-c1nc2ccccc2c2nc3c4nsnc4ccc3n12` yielded a zone of inhibition at 1000 µg/mL of 38 mm.
Work on `CC(=O)N1CCN(c2ccc(OCC3COC(Cn4ccnc4)(c4ccc(Cl)cc4Cl)O3)cc2)CC1` (centres undefined) [KETOCONAZOLE] yielded a zone of inhibition at 1000 µg/mL of 40 mm.
